Columns and labels:
barnyardgrass [1] = experiment: Test A pre-/postemergence greenhouse test; assay type: in vivo, Echinochloa crus-galli; conditions: for Plant response rating, Barnyardgrass: 0 to 100 scale where 0 is no effect and 100 is complete control; for Barnyardgrass plant response rating: 0 to 100 scale
Outline: (§1)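 Visual injury ratings, made relative to untreated controls roughly ten days after treatment, cover both preemergence and postemergence application. Compounds in a surfactant-containing non-phytotoxic solvent were sprayed onto the soil surface after sowing and, simultaneously, onto young plants at the one- to two-leaf stage.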

crabgrass = experiment: Test A pre-/postemergence greenhouse test; assay type: in vivo, Digitaria sanguinalis; conditions: for Plant response rating, Crabgrass, Large: 0 to 100 scale where 0 is no effect and 100 is complete control; for Crabgrass, Large plant response rating: 0 to 100 scale
Outline: as §1

giant foxtail = experiment: Test A pre-/postemergence greenhouse test; assay type: in vivo, Setaria faberi; conditions: for Plant response rating, Foxtail, Giant: 0 to 100 scale where 0 is no effect and 100 is complete control; for Foxtail, Giant plant response rating: 0 to 100 scale
Outline: as §1

morningglory = experiment: Test A pre-/postemergence greenhouse test; assay type: in vivo, Ipomoea spp.; conditions: for Plant response rating, Morningglory: 0 to 100 scale where 0 is no effect and 100 is complete control; for Morningglory plant response rating: 0 to 100 scale
Outline: as §1

redroot pigweed = experiment: Test A pre-/postemergence greenhouse test; assay type: in vivo, Amaranthus retroflexus; conditions: for Plant response rating, Pigweed: 0 to 100 scale where 0 is no effect and 100 is complete control; for Pigweed plant response rating: 0 to 100 scale
Outline: as §1

velvetleaf = experiment: Test A pre-/postemergence greenhouse test; assay type: in vivo, Abutilon theophrasti; conditions: for Plant response rating, Velvetleaf: 0 to 100 scale where 0 is no effect and 100 is complete control; for Velvetleaf plant response rating: 0 to 100 scale
Outline: as §1

wheat = experiment: Test A pre-/postemergence greenhouse test; assay type: in vivo, Triticum aestivum; conditions: for Plant response rating, Wheat: 0 to 100 scale where 0 is no effect and 100 is complete control; for Wheat plant response rating: 0 to 100 scale
Outline: as §1

corn = experiment: Test A pre-/postemergence greenhouse test; assay type: in vivo, Zea mays; conditions: for Plant response rating, Corn: 0 to 100 scale where 0 is no effect and 100 is complete control; for Corn plant response rating: 0 to 100 scale
Outline: as §1

rice = experiment: Test C flooded paddy test; assay type: in vivo, Oryza sativa; conditions: Flood
Outline: (§2)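 Ratings were visual and made relative to untreated controls after 13 to 15 greenhouse days.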

umbrella sedge = experiment: Test C flooded paddy test; assay type: in vivo, Cyperus difformis; conditions: Flood
Outline: as §2

duck salad = experiment: Test C flooded paddy test; assay type: in vivo, Heteranthera limosa; conditions: Flood
Outline: as §2

barnyardgrass [2] = experiment: Test C flooded paddy test; assay type: in vivo, Echinochloa crus-galli; conditions: Flood
Outline: as §2

[3] = Postemergence, 500 g ai/ha, 0 is no effect, 100 is complete control
[4] = Preemergence, 125 g ai/ha, 0 no effect, 100 complete control
[5] = Preemergence, 500 g ai/ha, 0 no effect, 100 complete control
[6] = 31 g ai/ha, scale 0 to 100 (0 no effect, 100 complete control)
[7] = 62 g ai/ha, scale 0 to 100 (0 no effect, 100 complete control)
[8] = 125 g ai/ha, scale 0 to 100, 0 no effect, 100 complete control, 13 to 15 days
[9] = 250 g ai/ha, scale 0 to 100, 0 no effect, 100 complete control, 13 to 15 days
[10] = 62 g ai/ha, scale 0 to 100, 0 no effect, 100 complete control, 13 to 15 days

Compound: CCOc1ccc(S(=O)(=O)Cc2c(C(F)(F)F)nn(C)c2OC(F)F)[n+]([O-])c1 [Compound 105]
- Plant response rating, Barnyardgrass (barnyardgrass [1]; Postemergence, 125 g ai/ha): 10
- Barnyardgrass plant response rating (barnyardgrass [1]; [3]): 60
- Barnyardgrass plant response rating (barnyardgrass [1]; [4]): 10
- Barnyardgrass plant response rating (barnyardgrass [1]; [5]): 30
- Plant response rating, Crabgrass, Large (crabgrass; Postemergence, 125 g ai/ha): 10
- Crabgrass, Large plant response rating (crabgrass; [3]): 70
- Crabgrass, Large plant response rating (crabgrass; [4]): 40
- Crabgrass, Large plant response rating (crabgrass; [5]): 70
- Plant response rating, Foxtail, Giant (giant foxtail; Postemergence, 125 g ai/ha): 10
- Foxtail, Giant plant response rating (giant foxtail; [3]): 60
- Foxtail, Giant plant response rating (giant foxtail; [4]): 40
- Foxtail, Giant plant response rating (giant foxtail; [5]): 50
- Plant response rating, Morningglory (morningglory; Postemergence, 125 g ai/ha): 0
- Morningglory plant response rating (morningglory; [3]): 30
- Morningglory plant response rating (morningglory; [4]): 10
- Morningglory plant response rating (morningglory; [5]): 40
- Plant response rating, Pigweed (redroot pigweed; Postemergence, 125 g ai/ha): 0
- Pigweed plant response rating (redroot pigweed; [3]): 0
- Pigweed plant response rating (redroot pigweed; [4]): 0
- Pigweed plant response rating (redroot pigweed; [5]): 0
- Plant response rating, Velvetleaf (velvetleaf; Postemergence, 125 g ai/ha): 0
- Velvetleaf plant response rating (velvetleaf; [3]): 0
- Velvetleaf plant response rating (velvetleaf; [4]): 0
- Velvetleaf plant response rating (velvetleaf; [5]): 0
- Plant response rating, Wheat (wheat; Postemergence, 125 g ai/ha): 0
- Wheat plant response rating (wheat; [3]): 0
- Wheat plant response rating (wheat; [4]): 0
- Wheat plant response rating (wheat; [5]): 0
- Plant response rating, Corn (corn; Postemergence, 125 g ai/ha): 0
- Corn plant response rating (corn; [3]): 0
- Corn plant response rating (corn; [4]): 0
- Corn plant response rating (corn; [5]): 0
- Plant response rating, Rice (rice; [6]): 0
- Plant response rating, Rice (rice; [7]): 0
- Plant response rating, Rice (rice; [8]): 0
- Plant response rating, Rice (rice; [9]): 0
- Plant response rating, Sedge, Umbrella (umbrella sedge; [6]): 0
- Plant response rating, Sedge, Umbrella (umbrella sedge; [7]): 0
- Plant response rating, Sedge, Umbrella (umbrella sedge; [8]): 0
- Plant response rating, Sedge, Umbrella (umbrella sedge; [9]): 0
- Plant response rating, Ducksalad (duck salad; [6]): 0
- Plant response rating, Ducksalad (duck salad; [7]): 0
- Plant response rating, Ducksalad (duck salad; [8]): 0
- Plant response rating, Ducksalad (duck salad; [9]): 0
- Plant response rating, Barnyardgrass (barnyardgrass [2]; [6]): 0
- Plant response rating, Barnyardgrass (barnyardgrass [2]; [7]): 0
- Plant response rating, Barnyardgrass (barnyardgrass [2]; [8]): 0
- Plant response rating, Barnyardgrass (barnyardgrass [2]; [9]): 0

Compound: Cc1cc[n+]([O-])c(S(=O)(=O)C(Cl)c2c(C(F)(F)F)nn(CC(F)(F)F)c2Cl)c1 (stereo not shown) [Compound 56]
- Plant response rating, Barnyardgrass (barnyardgrass [1]; Postemergence, 125 g ai/ha): 0
- Barnyardgrass plant response rating (barnyardgrass [1]; [3]): 50
- Barnyardgrass plant response rating (barnyardgrass [1]; [4]): 0
- Plant response rating, Barnyardgrass (barnyardgrass [1]; Preemergence, 500 g ai/ha): 70
- Plant response rating, Crabgrass, Large (crabgrass; Postemergence, 125 g ai/ha): 0
- Crabgrass, Large plant response rating (crabgrass; [3]): 50
- Crabgrass, Large plant response rating (crabgrass; [4]): 20
- Plant response rating, Crabgrass, Large (crabgrass; Preemergence, 500 g ai/ha): 80
- Plant response rating, Foxtail, Giant (giant foxtail; Postemergence, 125 g ai/ha): 0
- Foxtail, Giant plant response rating (giant foxtail; [3]): 50
- Foxtail, Giant plant response rating (giant foxtail; [4]): 30
- Plant response rating, Foxtail, Giant (giant foxtail; Preemergence, 500 g ai/ha): 90
- Plant response rating, Morningglory (morningglory; Postemergence, 125 g ai/ha): 0
- Morningglory plant response rating (morningglory; [3]): 10
- Morningglory plant response rating (morningglory; [4]): 0
- Plant response rating, Morningglory (morningglory; Preemergence, 500 g ai/ha): 0
- Plant response rating, Pigweed (redroot pigweed; Postemergence, 125 g ai/ha): 0
- Pigweed plant response rating (redroot pigweed; [3]): 20
- Plant response rating, Pigweed (redroot pigweed; Preemergence, 500 g ai/ha): 100
- Plant response rating, Velvetleaf (velvetleaf; Postemergence, 125 g ai/ha): 0
- Velvetleaf plant response rating (velvetleaf; [3]): 0
- Velvetleaf plant response rating (velvetleaf; [4]): 0
- Plant response rating, Velvetleaf (velvetleaf; Preemergence, 500 g ai/ha): 40
- Plant response rating, Wheat (wheat; Postemergence, 125 g ai/ha): 0
- Wheat plant response rating (wheat; [3]): 0
- Wheat plant response rating (wheat; [4]): 0
- Plant response rating, Wheat (wheat; Preemergence, 500 g ai/ha): 0
- Plant response rating, Corn (corn; Postemergence, 125 g ai/ha): 0
- Corn plant response rating (corn; [3]): 0
- Corn plant response rating (corn; [4]): 0
- Plant response rating, Corn (corn; Preemergence, 500 g ai/ha): 0
- Plant response rating, Rice (rice; [6]): 0
- Plant response rating, Rice (rice; [10]): 0
- Plant response rating, Rice (rice; [8]): 0
- Plant response rating, Rice (rice; [9]): 0
- Plant response rating, Sedge, Umbrella (umbrella sedge; [6]): 0
- Plant response rating, Sedge, Umbrella (umbrella sedge; [8]): 45
- Plant response rating, Sedge, Umbrella (umbrella sedge; [9]): 55
- Plant response rating, Ducksalad (duck salad; [6]): 0
- Plant response rating, Ducksalad (duck salad; [10]): 40
- Plant response rating, Ducksalad (duck salad; [8]): 85
- Plant response rating, Ducksalad (duck salad; [9]): 100
- Plant response rating, Barnyardgrass (barnyardgrass [2]; [6]): 0
- Plant response rating, Barnyardgrass (barnyardgrass [2]; [10]): 0
- Plant response rating, Barnyardgrass (barnyardgrass [2]; [8]): 0
- Plant response rating, Barnyardgrass (barnyardgrass [2]; [9]): 20

From patent US20100298141A1, “SUBSTITUTED PYRIDINE N-OXIDE HERBICIDES” (E. I. DU PONT DE NEMOURS AND COMPANY, priority 2007, published 2010)
